From PMC10488193, “Evaluation of the Chemical Stability, Membrane Permeability and Antiproliferative Activity of Cyclic Diarylheptanoids from European Hornbeam (Carpinus betulus L.)” (International Journal of Molecular Sciences, 2023)

Assays:
[1] = PAMPA-GI; format: in vitro ADME; conditions: for Papp at 4 h, 100 µM: PAMPA, read-out: logPe PAMPA-GI (n = 9) (converted)
Procedure: A parallel artificial membrane permeability assay (PAMPA) was used to determine the effective permeability (Pe) for the Carpinus diarylheptanoids. Stock solutions of the isolated compounds (10 mM in DMSO) were diluted with the defined buffer (pH 7.4 for the PAMPA-BBB and pH 6.8 for the PAMPA-GI assays) to obtain the donor solutions (composition: 297.0 μL buffer + 3.0 μL stock solution). Donor solutions were filtered through Phenex-RC 15 mm, 0.2 μm syringe filters (Gen-Lab Ltd., Budapest, Hungary).
For the PAMPA-BBB test, 5 μL of porcine polar brain lipid extract (PBLE) solution (16.0 mg PBLE + 8.0 mg cholesterol dissolved in 600.0 μL n-dodecane) was applied for each well of the 96-well polycarbonate-based filter donor plates (top plate) (Multiscreen™-IP, MAIPN4510, pore size 0.45 μm; Merck). For the PAMPA-GI assay, the wells of the top plate were coated with 5 μL of the mixture of 8.0 mg phosphatidylcholine + 4.0 mg cholesterol dissolved in 300.0 μL n-dodecane. The 150.0 μL aliquots of the filtrated donor solutions were placed on the membrane. The 96-well PTFE acceptor plates (bottom plates) (Multiscreen Acceptor Plate, MSSACCEPTOR; Merck), were filled with 300.0 μL buffer solution (0.01 M PBS buffer, pH 7.4). […]
After the incubation, the plates were separated and the compound concentrations in the donor (CD(t)) and acceptor (CA(t)) solutions were determined using the aforementioned UHPLC-DAD method (see Section 3.4). […] The effective permeability and the membrane retention in the PAMPA-BBB and the PAMPA GI experiments were calculated by Equations (3) and (4), respectively:(3) Pe=−2.303/A(t−τSS)·VA·VD/VA+VD·lg1−VA+VD/1−MR·VD×CAt/CD0 (4) Pe=−2.303/A(t−τSS))·1/1+ra·lg−ra+1+ra/1−MR×CDt/CD0 where Pe is the effective permeability coefficient (cm/s), A is the filter area (0.24 cm^2), VD and VA are the volumes in the donor (0.15 cm^3) and acceptor phases (0.30 cm^3), t is the incubation time (s), τSS is the time (s) to reach steady state (240 s), CD(t) is the concentration (mol/cm^3) of the compound in the donor phase at time t, CD(0) is the concentration (mol/cm^3) of the compound in the donor phase at time 0, MR is the estimated membrane retention factor (the estimated mole fraction of solute lost to the membrane) and ra is the sink asymmetry ratio (gradient-pH-induced), defined as:(5) ra=VD/VA×Pe(A→D)/Pe(D→A) (6) MR=1−CDt/CD0−VA/VDCAt/CD0
All experiments were performed in three triplicates on three consecutive days (n = 9); caffeine standard was used as positive, while rutin was used as negative control. Clog P values were calculated using ACD/ChemSketch (Freeware) 2 January 2020 (Advanced Chemistry Development, Inc., Toronto, ON, Canada).

[2] = tested on: A2058 (melanoma, derived from metastatic site: lymph node); assay: In vitro antiproliferative activity, Alamar Blue assay; format: cell-based; conditions: Homo sapiens; A2058, 24 h treatment, then three days culture, n = 2; read-out: IC50 ± SD
Procedure: (§1) For the experiments, the following human cell lines were used: A2058 (melanoma, derived from metastatic site: lymph node), HepG2 (hepatocellular carcinoma), U87 (glioblastoma), HT-29 (colorectal carcinoma) and HL-60 (acute promyelocytic leukaemia). Cell lines were generous gifts from Dr. […] (Department of Experimental Pharmacology, National Institute of Oncology, Budapest, Hungary). […] The cultures were maintained at 37 °C in a humidified atmosphere with 5% CO2. The cells were grown to confluency and then divided into 96-well tissue culture plates (Sarstedt, Nümbrecht, Germany) with an initial cell number of 5000 cells/well. Cells were incubated at 37 °C in a 5% CO2 humidified atmosphere overnight. Before the assay, 50 μL of the supernatant was removed and replaced with a 50 μL serum-free medium (SFM). […] The cells were treated for 24 h with the compounds and negative control cells (no compound control) were treated with SFM only (incubated at 37 °C). […] The percentage of cytostasis was calculated with the following equation: […] Data were evaluated with Excel (version: 365; Microsoft, Redmond, WA, USA) and the curves were defined using Microcal OriginPro (version: 2018; OriginLab, Northampton, MA, USA) software. In each case, two independent experiments were carried out with four parallel measurements and the mean IC50 values together with ±SD were represented. The Excel (version: 365) (Microsoft, Redmond, WA, USA) and Microcal OriginPro (version: 2018) (OriginLab, Northampton, MA, USA) softwares were used for data evaluation.

[3] = tested on: HL-60 (acute promyelocytic leukaemia); assay: as above; format: cell-based; conditions: Homo sapiens; HL-60, 24 h treatment, then three days culture, n = 2; read-out: IC50 ± SD
Procedure: as §1

[4] = tested on: HT-29 (colorectal carcinoma); assay: as above; format: cell-based; conditions: Homo sapiens; HT-29, 24 h treatment, then three days culture, n = 2; read-out: IC50 ± SD
Procedure: as §1

[5] = tested on: HepG2 (hepatocellular carcinoma); assay: as above; format: cell-based; conditions: Homo sapiens; HepG2, 24 h treatment, then three days culture, n = 2; read-out: IC50 ± SD
Procedure: as §1

[6] = tested on: U87 (glioblastoma); assay: as above; format: cell-based; conditions: Homo sapiens; U87, 24 h treatment, then three days culture, n = 2; read-out: IC50 ± SD
Procedure: as §1

## O=C1C[C@H](O)[C@@H](O)Cc2ccc(O)c(c2)-c2cc(ccc2O)C[C@H]1O [Compound 1, carpinontriol A]
[1]
  Papp at 4 h, 100 µM: 0.562 ×10⁻⁶ cm/s
[2]
  IC50: 14.9 ± 2.3 µM
[3]
  IC50: > 100 µM
[4]
  IC50: > 100 µM
[5]
  IC50: > 100 µM
[6]
  IC50: > 100 µM

## O=C1CCc2ccc(O)c(c2)-c2cc(ccc2O)C[C@H](O)[C@H](O)[C@H]1O [Compound 2, carpinontriol B]
[1]
  Papp at 4 h, 100 µM: 3.47 ×10⁻⁶ cm/s
[2]
  IC50: > 100 µM
[3]
  IC50: > 100 µM
[4]
  IC50: > 100 µM
[5]
  IC50: > 100 µM
[6]
  IC50: > 100 µM

## O=C1CCc2ccc(O)c(c2)-c2cc(ccc2O)C[C@@H](O)[C@H](O)C1 [Compound 3, giffonin X]
[1]
  Papp at 4 h, 100 µM: 6.03 ×10⁻⁶ cm/s
[2]
  IC50: > 100 µM
[3]
  IC50: > 100 µM
[4]
  IC50: > 100 µM
[5]
  IC50: > 100 µM
[6]
  IC50: > 100 µM

## O=C1CCC(=O)C(O)Cc2ccc(O)c(c2)-c2cc(ccc2O)C1 (stereo not drawn) [Compound 4, 3,12,17-trihydroxytricyclo [12.3.1.1^2,6]nonadeca-1(18),2(19),3,5,14,16-hexaene-8,11-dione]
[1]; donor pH 6.8, acceptor pH 7.4, 37 °C, 4 h, Pe in cm/s, n.d. = not detected in the acceptor phase
  logPe PAMPA-GI (n = 9): not detected in the acceptor phase
[2]
  IC50: > 100 µM
[3]
  IC50: > 100 µM
[4]
  IC50: > 100 µM
[5]
  IC50: > 100 µM
[6]
  IC50: > 100 µM
